Measurements: the supplement of paper PMC12420376

Key:
[1] = system: KURAMOCHI; test: drug sensitivity score (DSS2) on cancer cell count; higher = more sensitive; extreme values may be limits of the assay; conditions: 72 h
Method in brief: (§1)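 Ovarian cancer cells grown alone or 1:1 with lung or skin fibroblasts in direct co-culture were treated for 72 h on 384-well plates carrying 528 approved and investigational compounds at 5 concentrations. Fixed cells were stained for CK8/18 with Hoechst and imaged to count cancer cells. A drug sensitivity score was then derived in Breeze from logistic curve fits.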

[2] = system: OVCAR8; test: as above; conditions: 72 h
Method in brief: as §1

[3] = co-cultured fibroblast: BJHTERT
[4] = co-cultured fibroblast: none (monoculture)

Row | Structure (SMILES) | drug sensitivity score [1, 3] [DSS] | drug sensitivity score ([1]; co-cultured fibroblast: WI38) [DSS] | drug sensitivity score [1, 4] [DSS] | drug sensitivity score [2, 3] [DSS] | drug sensitivity score ([2]; co-cultured fibroblast: WI38) [DSS] | drug sensitivity score [2, 4] [DSS]
1 | Nc1ncnc2c1nc(Cl)n2[C@@H]1O[C@H](CO)[C@@H](O)[C@H]1O [8-chloro-adenosine] | 10.1 | 10.4 | 10.3 | 12.9 | 9.9 | 16.9
2 | C=CC(=O)Nc1cccc(Nc2nc(Nc3ccc(N4CCN(C(C)=O)CC4)cc3OC)ncc2C(F)(F)F)c1 [Rociletinib] | 5.8 | 4.6 | 3.7 | 6.7 | 4.1 | 8.1
3 | O=C(Nc1cccc(NC(=O)c2cccc(O)c2O)c1)c1cccc(O)c1O [MST-312] | 12 | 9.8 | 15.1 | 10.9 | 15.4 | 18.1
4 | CC(O)c1cc(C(=O)N[C@@H](C)Cn2ccc(-c3ccc(C#N)c(Cl)c3)n2)n[nH]1 (stereo partly specified) [ODM-201] | 1.3 | 0 | 3.7 | 0.5 | 0 | 0
5 | NC(=O)NO [Hydroxyurea] | 5.9 | 7.3 | 6.3 | 1.8 | 7.3 | 7.7
6 | CC(C)C[C@H](NC(=O)[C@@H](COC(C)(C)C)NC(=O)[C@H](Cc1ccc(O)cc1)NC(=O)[C@H](CO)NC(=O)[C@H](Cc1c[nH]c2ccccc12)NC(=O)[C@H](Cc1cnc[nH]1)NC(=O)[C@@H]1CCC(=O)N1)C(=O)N[C@@H](CCCNC(=N)N)C(=O)N1CCC[C@H]1C(=O)NNC(N)=O [Goserelin] | 0 | 0 | 0 | 0 | 0 | 0
7 | Oc1ccc2c(c1)CC[C@H](c1ccccc1)[C@@H]2c1ccc(OCCN2CCCC2)cc1 [Lasofoxifene] | 0 | 0 | 0 | 0 | 5.5 | 0
8 | CS(=O)(=O)CCNCc1ccc(-c2ccc3ncnc(Nc4ccc(OCc5cccc(F)c5)c(Cl)c4)c3c2)o1 [Lapatinib] | 9.2 | 6.8 | 0 | 0.7 | 0 | 0
9 | C=CC(=O)Nc1cc(Nc2nccc(-c3cn(C)c4ccccc34)n2)c(OC)cc1N(C)CCN(C)C [Osimertinib] | 10.7 | 6.8 | 10.7 | 6.8 | 0.6 | 3.7
10 | COc1cc(CCc2cc(NC(=O)c3ccc(N4CC(C)NC(C)C4)cc3)n[nH]2)cc(OC)c1 (stereo unspecified) [AZD4547] | 0 | 0 | 0 | 0 | 0 | 0
11 | CC[C@H](NC(=O)[C@H](C)NC)C(=O)N1C[C@@H](O)C[C@H]1Cc1c(-c2[nH]c3cc(F)ccc3c2C[C@@H]2C[C@H](O)CN2C(=O)[C@H](CC)NC(=O)[C@H](C)NC)[nH]c2cc(F)ccc12 [Birinapant] | 3.3 | 0 | 3.7 | 15.9 | 12.9 | 5.4
12 | C/C(=C\c1csc(C)n1)[C@@H]1C[C@@H]2O[C@]2(C)CCC[C@H](C)[C@H](O)[C@@H](C)C(=O)C(C)(C)[C@@H](O)CC(=O)N1 [Ixabepilone] | 4.9 | 4.6 | 0.8 | 5.8 | 5.6 | 3.6
13 | Cc1c(C(=O)Nc2ccc(N3C[C@@H](C)O[C@@H](C)C3)nc2)cccc1-c1ccc(OC(F)(F)F)cc1 [Sonidegib] | 0 | 0 | 0 | 0.6 | 0 | 0.6
14 | C#Cc1cccc(Nc2ncnc3cc(OCCOC)c(OCCOC)cc23)c1 [Erlotinib] | 1.1 | 2.6 | 0.4 | 3.1 | 0 | 5
15 | C[C@H]1C[C@@H]2[C@H]([C@@H](O)C[C@@]3(C)[C@H]2CC[C@]3(O)C(=O)CO)[C@@]2(C)C=CC(=O)C=C12 [Methylprednisolone] | 0 | 0 | 9.8 | 0 | 0 | 8.1
16 | COc1cc(Br)c(Nc2nc(-c3c(C)nc4ncccn34)cs2)c(Br)c1 [PTC-209] | 2.4 | 3.6 | 7.9 | 9.1 | 3.1 | 6.9
17 | CN(C(=O)c1ccc(F)cc1C(F)(F)F)C1CCN(c2nnc(-c3ccnn3C)c3ccccc23)CC1 [Taladegib] | 0 | 0 | 0 | 0 | 0 | 0
18 | CC[C@@H]1[C@H](F)C(=O)N[C@@H]1COc1nccc2cc(C(N)=O)c(OC)cc12 | 3.7 | 1.8 | 1.9 | 2.4 | 10.1 | 4
19 | CN1CCN(C(=O)c2ccc3cc(CCNc4ncnc5ccc(C#N)cc45)ccc3c2)CC1 [Senexin B] | 1.1 | 1.6 | 1 | 1.1 | 0 | 0.1
20 | CO[C@H]1CC[C@H](N2C(=O)CNc3ncc(-c4ccc(C(C)(C)O)nc4)nc32)CC1 [CC-223] | 6.8 | 5.7 | 4.7 | 5 | 1.6 | 7.6
21 | O=C(Nc1cc(Cl)cc2c1[nH]c1cnccc12)c1cccnc1 [PS-1145] | 0.6 | 3.2 | 2.1 | 0 | 0 | 1.8
22 | O=C1CCc2c(Oc3ccc4c(c3)[C@@H]3[C@H](O4)[C@H]3c3nc4cc(C(F)(F)F)ccc4[nH]3)ccnc2N1 [BGB-283] | 6.9 | 5.3 | 4.7 | 3.7 | 13.4 | 5.2
23 | CN(C)C1CCN(C(=O)c2ccc(NC(=O)Nc3ccc(-c4nc(N5CCOCC5)nc(N5CCOCC5)n4)cc3)cc2)CC1 [Gedatolisib] | 16.8 | 16 | 21.3 | 8.7 | 2 | 8.2
24 | CC1(C)CNc2cc(NC(=O)c3cccnc3NCc3ccncc3)ccc21 [Motesanib] | 0.3 | 0.2 | 0 | 0 | 1 | 2
25 | C=CC(=O)N1CCC[C@@H](n2nc(-c3ccc(Oc4ccccc4)cc3)c3c(N)ncnc32)C1 [Ibrutinib] | 3.1 | 3 | 0 | 1.1 | 0 | 0
26 | O=S(=O)(c1cccc2c(O)nccc12)N1CCCNCC1 [Hydroxyfasudil] | 0 | 1 | 2 | 0 | 1.2 | 0
